Laboratory results as given in ChEMBL document CHEMBL1201862, “PubChem BioAssay data set” (2004).
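Assay format: 96-well plates, 48-hour exposure. Abbreviation: GI50, concentration required for 50% inhibition of growth.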 Active and inactive are the calls of the source. No stated cut-off is given here; in the data, active = GI50 up to about 1.1 µM and inactive = higher.

Experiments:
Assay in all cases: inhibition of tumour cell growth, NCI panel, 48 h
OVCAR-5 = test system: OVCAR-5
UACC-62 = test system: UACC-62
A549 = test system: A549
TK-10 = test system: TK-10
NCI-H226 = test system: NCI-H226
M14 = test system: M14
SF-295 = test system: SF-295
MDA-MB-231 = test system: MDA-MB-231
SK-MEL-2 = test system: SK-MEL-2
NCI/ADR-RES = test system: NCI/ADR-RES
LOX IMVI = test system: LOX IMVI
RXF 393 = test system: RXF 393
BT-549 = test system: BT-549
HOP-92 = test system: HOP-92
U-251 = test system: U-251
SF-539 = test system: SF-539
SNB-75 = test system: SNB-75
HCC 2998 = test system: HCC 2998
COLO 205 = test system: COLO 205
SK-OV-3 = test system: SK-OV-3

Measured: GI50

NC(Cc1ccccc1)P(=O)(O)O (stereo not given)
inactive: OVCAR-5 > 100 µM | UACC-62 > 100 µM | A549 > 100 µM | TK-10 > 100 µM | NCI-H226 > 100 µM | M14 > 100 µM | SF-295 > 100 µM | MDA-MB-231 > 100 µM | SK-MEL-2 > 100 µM | NCI/ADR-RES > 100 µM | LOX IMVI > 100 µM | RXF 393 > 100 µM | BT-549 > 100 µM | HOP-92 > 100 µM | U-251 > 100 µM

C=C(C)C1CCC2(CO)C(O)CC3(C)C(CCC4C5(C)CCC(O)C(C)(C)C5CCC43C)C12 (stereo not given)
inactive: OVCAR-5 > 100 µM | A549 10.6 µM | TK-10 16.1 µM | NCI-H226 34.6 µM | M14 18.6 µM | SF-295 2.84 µM | SF-539 12.7 µM | MDA-MB-231 12.7 µM | SK-MEL-2 10.3 µM | SNB-75 3.7 µM | NCI/ADR-RES 15.3 µM | LOX IMVI 9.98 µM | RXF 393 2.32 µM | BT-549 11.6 µM | HOP-92 11.4 µM | U-251 2.81 µM

O=c1[nH]nc(-c2ccc3ccccc3c2)[nH]1
inactive: OVCAR-5 > 100 µM | UACC-62 21 µM | A549 > 100 µM | TK-10 > 100 µM | NCI-H226 > 100 µM | M14 > 100 µM | SF-295 45.5 µM | HCC 2998 > 100 µM | SF-539 > 100 µM | SK-MEL-2 > 100 µM | SNB-75 22.9 µM | NCI/ADR-RES > 100 µM | LOX IMVI > 100 µM | RXF 393 > 100 µM | COLO 205 > 100 µM | BT-549 > 100 µM | U-251 > 100 µM

COCC1OC(Sc2ccccc2)C(O)C(OC)C1OC (stereo not given)
inactive: OVCAR-5 > 100 µM | UACC-62 > 100 µM | A549 > 100 µM | TK-10 > 100 µM | NCI-H226 > 100 µM | M14 > 100 µM | SF-295 > 100 µM | HCC 2998 > 100 µM | SF-539 > 100 µM | MDA-MB-231 > 100 µM | SK-MEL-2 > 100 µM | NCI/ADR-RES > 100 µM | SK-OV-3 > 100 µM | LOX IMVI > 100 µM | RXF 393 > 100 µM | COLO 205 > 100 µM | BT-549 > 100 µM | U-251 > 100 µM

COC(O)C(=O)c1c2c(cc3c1CCC3)CCC2 (stereo not given)
inactive: OVCAR-5 > 100 µM | UACC-62 > 100 µM | A549 > 100 µM | TK-10 > 100 µM | NCI-H226 > 100 µM | M14 > 100 µM | SF-295 > 100 µM | HCC 2998 > 100 µM | SF-539 > 100 µM | MDA-MB-231 > 100 µM | SK-MEL-2 > 100 µM | SNB-75 > 100 µM | NCI/ADR-RES > 100 µM | SK-OV-3 > 100 µM | LOX IMVI > 100 µM | COLO 205 > 100 µM | BT-549 > 100 µM | U-251 > 100 µM

Cc1cc(Cl)nc2ccc(Cc3ccc4nc(Cl)cc(C)c4c3)cc12
inactive: OVCAR-5 > 100 µM | UACC-62 51.6 µM | A549 47.5 µM | TK-10 20.7 µM | NCI-H226 93.3 µM | M14 85.3 µM | SF-295 22 µM | SF-539 12.6 µM | MDA-MB-231 17.1 µM | SK-MEL-2 47.5 µM | SNB-75 3.3 µM | NCI/ADR-RES 33.5 µM | SK-OV-3 14 µM | LOX IMVI 56.5 µM | RXF 393 11 µM | COLO 205 > 100 µM | BT-549 42.2 µM | HOP-92 43.1 µM | U-251 16.2 µM

O=C1CCCCCCCCCCC1CCCCCBr (stereo not given)
inactive: OVCAR-5 25.1 µM | UACC-62 31.1 µM | A549 29.4 µM | TK-10 44 µM | NCI-H226 20.8 µM | M14 33 µM | SF-295 34.4 µM | HCC 2998 18.5 µM | SF-539 22.8 µM | MDA-MB-231 20.3 µM | SK-MEL-2 16.9 µM | SNB-75 16.3 µM | NCI/ADR-RES 21.7 µM | SK-OV-3 57.9 µM | LOX IMVI 19 µM | RXF 393 19.6 µM | COLO 205 19.4 µM | HOP-92 18.4 µM | U-251 20 µM

C=CCn1c(S)nnc1C12CC3CC(CC(C3)C1)C2
inactive: OVCAR-5 > 100 µM | UACC-62 90.8 µM | TK-10 50.7 µM | NCI-H226 > 100 µM | M14 61 µM | SF-295 41.3 µM | HCC 2998 76.4 µM | SF-539 > 100 µM | MDA-MB-231 > 100 µM | SK-MEL-2 67.8 µM | SNB-75 > 100 µM | NCI/ADR-RES 55.1 µM | SK-OV-3 > 100 µM | LOX IMVI 86.5 µM | RXF 393 > 100 µM | COLO 205 > 100 µM | BT-549 50.6 µM | U-251 86.9 µM
